Measured values as given in paper PMC4062444, “Mechanisms of U87 Astrocytoma Cell Uptake and Trafficking of Monomeric versus Protofibril Alzheimer’s Disease Amyloid-β Proteins” (PLoS ONE, 2014).
Counter-ions that a name gives are not always drawn.

Assays:
[1] = system: U87 human brain astrocytoma cell line; assay: Uptake of HiLyte Fluor555-tagged Aβ42 peptides by U87 cells (confocal microscopy); format: cell-based; conditions: for reduction of oAβ42 uptake by U87 cells / reduction of sAβ42 uptake by U87 cells: inhibitor pretreatment (5 mM amiloride 30 min; 300 nM wortmannin 1 h; 1 mM MβCD 30 min), integrated intracellular fluorescence vs mock-treated cells, >25 cells in each of three experiments; for reduction of oAβ42 uptake by U87 cells: then 0.4 µM HiLyte Fluor555-oAβ42 2 h at 37°C; for reduction of sAβ42 uptake by U87 cells: then 0.4 µM HiLyte Fluor555-sAβ42 2 h at 37°C; for effect of Dyn 1 dominant-negative K44A mutant on uptake: U87 cells expressing GFP-tagged Dyn1 K44A, 0.4 µM peptide 2 h at 37°C
Experimental: U87 cells were seeded on coverslips and grown at 37°C overnight in complete medium. Uptake experiments were initiated by incubating cells at 37°C with 0.4 µM HiLyte Fluor555-tagged Aβ42 peptides for 2 h, which were diluted in imaging medium (α-MEM without phenol red supplemented with 20 mM HEPES, pH 7.4, and 5% FBS). Cells were subsequently washed three times with ice-cold PBS, fixed with 3.7% PFA for 20 min and stained with 1 µg/ml DAPI diluted in PBS containing 0.1% saponin for 15 min at room temperature. Then, cells were mounted with a mounting solution containing 50% glycerol and 50% PBS. For endocytosis inhibition experiments, cells were pretreated with various endocytotic inhibitors with indicated times followed by Aβ42 peptides uptake in the presence or absence of these inhibitors.
Briefly, in most cases, the integrated intracellular signals were determined from a 2D projection image of the fluorescence intensities of a Z-stack lacking the most bottom and top planes as they mostly contain plasma membrane signals. The cell outline in each plane was determined by increasing the brightness of the image. In some cases, bright field images were also taken to help identify the cell outlines. The integrated fluorescence within the cell was background-corrected by subtraction of the fluorescence signal surrounding the cell under analysis and its value was then normalized to the mean (average) of the control cells set to 100. For plain cells in the absence or presence of various pharmacological treatment, all intact cells in each image field were used for quantification of Aβ uptake; for cells transfected with plasmids, only the positively transfected cells were used for quantification of Aβ uptake, which was estimated from the EGFP signal in green channel.

astrocytic U87 cells = conditions: 20 µM Aβ, cited from earlier work
Source text: We assumed that U87 cells tolerated the toxic effects of Aβ42 species better than the neurons, particularly because we used relatively low concentrations of Aβ peptides, which could be rapidly cleared by U87 cells and produced negligible cellular toxicity. This property assigns a neuronal protection role to astrocytes because they can promptly clear Aβ ...

[2] = Transmission electron microscopy of oligomer preparation; format: physicochemical; conditions: TEM, 100 µM oAβ42, 1% uranyl acetate stain, 32,000×
Experimental: Aβ42 oligomers were applied to formvar-coated 300-mesh copper grids for 2 min and excess fluid was filtered off. The samples were then stained with 1% uranyl acetate for 1 min, excess fluid was filtered off and the grids were examined with H-8100 transmission electron microscope (Hitachi, Tokyo, Japan) operated at 150 KV and 32,000× magnification.

ThT fluorescence assay = format: physicochemical; conditions: 10 µM ThT in deionized water, pH 7.4; ex 450 nm, em 482 nm; Aβ42 0 to 30 µM
Experimental: The assay was performed according to a standard protocol. A 200 µM aqueous Thioflavin T (ThT) was prepared and filtered through 0.22 µm filter. For measurement, Aβ42 samples (monomers or oligomers) were prepared in 10 µM ThT/deionized water solution, pH 7.4. Immediately after mixing, ThT fluorescence of samples was measured with the excitation wavelength at 450 nm and emission wavelength at 482 nm with 470 nm cut-off by a Microplate Reader (Molecular Devices, Sunnyvale, CA, USA).

U87 cells [3] = system: U87 cells
Experimental: Cells maintained in the serum free medium without Aβ were used as negative control. Following addition of 20 µl MTS reagent into each well, plates were incubated at 37°C for 4 h. The formazan product was quantified by measuring absorbance at 490 nm with a Microplate Reader (Molecular Devices, Sunnyvale, CA, USA). All the experiments were repeated three times.

U87 cells [4] = system: U87 cells; remark: listed apart in the source
Experimental: Cells were incubated in fresh DMEM containing 0.4 µM fluro-tagged Aβ42 monomers or oligomers for 2 h. After extensively wash, cells were chased in fresh completed medium with indicated times up to 72 hours. Cells were subsequently fixed, stained with DAPI and mounted as described above. Images acquisition and analysis were performed as described below.
Estimation of the half-life and rate constants for degradation of Aβ42 peptides were made by fitting data using a single-phase exponential decay equation (Origin, ver. 6.0).

U87 cells [5] = assay: Localization of internalized Aβ42 within the endolysosomal system; format: cell-based, human; conditions: live-cell confocal; for fraction transported into early endosomes (EGFP-Rab5): U87 cells transfected with EGFP-Rab5, 0.4 µM peptide for 15 min, 30 min, 1 h or 2 h; for fraction localized to Lysotracker Green positive vesicles (lysosomes): U87 cells, 0.4 µM peptide for 30 min to 3 h, 50 nM LysoTracker Green
Experimental: The trafficking of fluro-tagged monomeric and oligomeric Aβ42 was measured as follows. To examine the localization in early endosomes, cells were transfected with EGFP-Rab5 plasmid to label early endosomes. 24 h after transfection, cells were treated with Aβ42 peptides for indicated time periods. After changing with the fresh imaging medium, live cell imaging was then taken using a confocal microscope with an objective heater (set at 37°C). To examine the localization of peptides in lysosomes, plain cells were first treated with Aβ42 peptides for indicated time periods, and 30 min before taking imaging, lysotracker Green were supplemented in the incubation medium (50 nM) to label lysosomes. Afterwards, fresh medium was changed and live cell imaging was taken.
Images were deconvolved using AutoQuant, a 50-pixel-wide rolling-ball subtraction algorithm was subsequently used to remove background noise. The sub-stacks of 3 sections spanning 0.4 µm were generated and imported to ImageJ for analysis. Manders’ coefficient was calculated using ImageJ plugin “JACop”. The percentage was scored as the Aβ puncta signals that are positive for EGFP-Rab5 or Lysotracker Green signals with respect to the total number of Aβ puncta.

O=C(N/N=C/c1ccc(O)c(O)c1)c1cc2ccccc2cc1O [Dynasore]
oAβ42 entry after Dynasore treatment ([1]; Dynasore pretreatment, then oAβ42 2 h at 37°C, confocal microscopy): almost entirely blocked | internalization of sAβ42 after Dynasore treatment ([1]; Dynasore pretreatment, then sAβ42 2 h at 37°C, confocal microscopy): strongly blocked

N=C(N)NC(=O)c1nc(Cl)c(N)nc1N [amiloride, Amiloride hydrochloride hydrate]
reduction of oAβ42 uptake by U87 cells [1]: 92% | reduction of sAβ42 uptake by U87 cells [1]: 61%

COC[C@H]1OC(=O)c2coc3c2[C@@]1(C)C1=C(C3=O)[C@@H]2CCC(=O)[C@@]2(C)C[C@H]1OC(C)=O [wortmannin]
reduction of oAβ42 uptake by U87 cells [1]: 37% | reduction of sAβ42 uptake by U87 cells [1]: 55%

Aβ: Aβ used by Wang et al. (ref 36, amyloid-beta1–42) on U87 cells
viability of U87 cells (astrocytic U87 cells; autophagic cell death): did decrease | apoptosis of U87 cells (astrocytic U87 cells): not induced to undergo apoptosis

Methyl-β-cyclodextrin [MβCD]
reduction of oAβ42 uptake by U87 cells [1]: 48% | reduction of sAβ42 uptake by U87 cells [1]: 46%

oAβ42: protofibril, an oligomeric assembly of Aβ42 prepared from sAβ42 at pH 2.0, 37°C, 24 h
average length of oligomers on electron micrographs [2]: < 150 nm | diameter of oligomers on electron micrographs [2]: approximately 5 nm | ThT fluorescence after titration with Aβ42 solution (ThT fluorescence assay): increased in a nearly linear-manner | U87 cell growth / viability (U87 cells [3]): not inhibited | half-time (t0.5) of degradation in U87 cells (U87 cells [4]): 8.31 h | fraction transported into early endosomes (EGFP-Rab5) (U87 cells [5]): low fraction | fraction localized to Lysotracker Green positive vesicles (lysosomes) (U87 cells [5]): increased with prolonged Aβ42 treating time | effect of Dyn 1 dominant-negative K44A mutant on uptake [1]: no effect

sAβ42: soluble monomeric HiLyte Fluor555-labeled Aβ42 (Anaspec) dissolved in 0.1% NH4OH
ThT fluorescence after titration with Aβ42 solution (ThT fluorescence assay): basal fluorescence level | U87 cell growth / viability (U87 cells [3]): not inhibited | half-time (t0.5) of degradation in U87 cells (U87 cells [4]): 2.68 h | fraction transported into early endosomes (EGFP-Rab5) (U87 cells [5]): low fraction | fraction localized to Lysotracker Green positive vesicles (lysosomes) (U87 cells [5]): increased with prolonged Aβ42 treating time | effect of Dyn 1 dominant-negative K44A mutant on uptake [1]: no effect
